From patent US12404241B2 (Celgene Corporation, priority 2018, dated 2025)
Structures can show the parent of a compound that is named as a salt. Where two headings read alike, the source gives them in different places.

Target: T1, AR (Homo sapiens, UniProt P10275)
T1 construct: endogenous in cells; host or cells: VCaP cells
T1 sequence (P10275 1-920): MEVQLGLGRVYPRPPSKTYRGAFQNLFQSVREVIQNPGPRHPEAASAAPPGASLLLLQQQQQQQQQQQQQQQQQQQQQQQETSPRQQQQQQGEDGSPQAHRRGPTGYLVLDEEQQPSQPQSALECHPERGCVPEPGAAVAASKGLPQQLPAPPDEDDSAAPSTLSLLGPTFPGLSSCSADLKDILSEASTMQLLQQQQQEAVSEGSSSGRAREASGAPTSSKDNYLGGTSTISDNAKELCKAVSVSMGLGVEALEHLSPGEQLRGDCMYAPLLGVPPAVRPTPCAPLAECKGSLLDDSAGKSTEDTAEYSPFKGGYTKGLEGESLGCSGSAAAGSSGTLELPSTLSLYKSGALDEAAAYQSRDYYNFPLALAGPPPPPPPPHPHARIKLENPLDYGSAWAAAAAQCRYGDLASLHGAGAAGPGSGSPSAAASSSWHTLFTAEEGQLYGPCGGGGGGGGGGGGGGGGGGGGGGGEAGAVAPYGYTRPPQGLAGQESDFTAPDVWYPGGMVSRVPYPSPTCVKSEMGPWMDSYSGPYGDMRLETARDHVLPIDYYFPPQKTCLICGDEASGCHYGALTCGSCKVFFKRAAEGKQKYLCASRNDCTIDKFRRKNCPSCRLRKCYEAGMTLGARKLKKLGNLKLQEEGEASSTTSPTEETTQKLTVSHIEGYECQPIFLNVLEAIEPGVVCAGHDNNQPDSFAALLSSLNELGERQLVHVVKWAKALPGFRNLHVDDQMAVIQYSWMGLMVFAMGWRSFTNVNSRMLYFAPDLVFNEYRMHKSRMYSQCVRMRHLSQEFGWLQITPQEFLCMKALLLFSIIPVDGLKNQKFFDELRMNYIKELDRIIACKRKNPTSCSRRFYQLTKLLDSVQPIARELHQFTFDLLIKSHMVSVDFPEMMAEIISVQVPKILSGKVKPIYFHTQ
Assay: VCAP AR Degradation Assay
Assay type: cell-based
Details: for Y (AR degradation efficiency, % of DMSO control): class symbols *; for DC50: class symbols A-C
Procedure, shortened: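 Compounds were plated as 10-point 1:3 series reaching 5 μM final, then VCaP cells were seeded onto them and incubated 24 h at 37 °C. Cells were lysed cold, and total AR was measured by sandwich ELISA relative to 0.1% DMSO wells.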

SMILES	Y (AR degradation efficiency, % of DMSO control)	DC50 (read-out: DC50)	DC50
CC(C)c1cc(N2C(=S)N(c3ccc(C#N)c(C(F)(F)F)c3)C(=O)C2(C)C)ccc1OCCN1CCN(C2(C(=O)Nc3cccc(NC4CCC(=O)NC4=O)c3)CC2)CC1 (stereo not drawn) [Example 197]	*** (35%<Y<50%)	100 to 500 nM	
CCc1cc(N2C(=S)N(c3cnc(C#N)c(C(F)(F)F)c3)C(=O)C2(C)C)ccc1OCCN1CCN(CC(=O)Nc2cc(NC3CCC(=O)NC3=O)ccc2F)CC1 (stereo not drawn) [Example 64, 2-(4-(2-(4-(3-(6-cyano-5-(trifluoromethyl)pyridin-3-yl)-5,5-dimethyl-4-oxo-2-thioxoimidazolidin-1-yl)-2-ethylphenoxy)ethyl)piperazin-1-yl)-N-(5-(2,6-dioxopiperidin-3-ylamino)-2-fluorophenyl)acetamide]	* (0<Y<=25%)	< 100 nM	
CCc1cc(N2C(=S)N(c3cnc(C#N)c(C(F)(F)F)c3)C(=O)C2(C)C)ccc1OCCN1CC2CCC(C1)N2CC(=O)Nc1cccc(NC2CCC(=O)NC2=O)c1 (stereo not drawn) [Example 178, 2-(3-(2-(4-(3-(6-cyano-5-(trifluoromethyl)pyridin-3-yl)-5,5-dimethyl-4-oxo-2-thioxoimidazolidin-1-yl)-2-ethylphenoxy)ethyl)-3,8-diazabicyclo[3.2.1]octan-8-yl)-N-(3-(2,6-dioxopiperidin-3-ylamino)phenyl)acetamide]	** (25%<Y<=35%)		< 100 nM
C[C@@H]1CN(CCOc2ncc(N3C(=S)N(c4ccc(C#N)c(C(F)(F)F)c4)C(=O)C3(C)C)cc2C2CC2)C[C@H](C)N1CC(=O)Nc1cccc(NC2CCC(=O)NC2=O)c1 (stereo partly drawn) [Example 228, 2-((2S,6R)-4-(2-(5-(3-(4-cyano-3-(trifluoromethyl)phenyl)-5,5-dimethyl-4-oxo-2-thioxoimidazolidin-1-yl)-3-cyclopropylpyridin-2-yloxy)ethyl)-2,6-dimethylpiperazin-1-yl)-N-(3-(2,6-dioxopiperidin-3-ylamino)phenyl)acetamide]	* (0<Y<=25%)	< 100 nM	
CCc1cc(N2C(=S)N(c3ccc(C#N)c(C(F)(F)F)c3)C(=O)C2(C)C)ccc1OCCN1CC2CCC(C1)N2CC(=O)Nc1cccc(NC2CCC(=O)NC2=O)c1 (stereo not drawn) [Example 177, 2-(3-(2-(4-(3-(4-cyano-3-(trifluoromethyl)phenyl)-5,5-dimethyl-4-oxo-2-thioxoimidazolidin-1-yl)-2-ethylphenoxy)ethyl)-3,8-diazabicyclo[3.2.1]octan-8-yl)-N-(3-(2,6-dioxopiperidin-3-ylamino)phenyl)acetamide]	* (0<Y<=25%)	100 to 500 nM	
CCc1cc(N2C(=S)N(c3ccc(C#N)c(C(F)(F)F)c3)C(=O)C2(C)C)ccc1OC[C@H](C)N1C[C@@H](C)N(CC(=O)Nc2cccc(NC3CCC(=O)NC3=O)c2)[C@@H](C)C1 (single isomer, unassigned) [Example 236]	** (25%<Y<=35%)	100 to 500 nM	
CCc1cc(N2C(=S)N(c3cnc(C#N)c(C(F)(F)F)c3)C(=O)C2(C)C)ccc1OCCN1CCN(CC(=O)Nc2cc(NC3CCC(=O)NC3=O)ccc2Cl)CC1 (single isomer, unassigned) [Example 47]	* (0<Y<=25%)	< 100 nM	
CC1(C)C(=O)N(c2ccc(C#N)c(C(F)(F)F)c2)C(=S)N1c1ccc(OCCN2CCN(CC(=O)Nc3cccc(NC4CCC(=O)NC4=O)c3)CC2)c(C2CCCC2)c1 (stereo not drawn) [Example 39, hydrochloride]	** (25%<Y<=35%)	100 to 500 nM	
CC1(C)C(=O)N(c2ccc(C#N)c(C(F)(F)F)c2)C(=S)N1c1ccc(OCCN2CCN(CC(=O)Nc3cc(NC4CCC(=O)NC4=O)ccc3Cl)CC2)c(Cl)c1 (stereo not drawn) [Example 20, hydrochloride]	* (0<Y<=25%)	< 100 nM	
CCCc1cc(N2C(=S)N(c3ccc(C#N)c(C(F)(F)F)c3)C(=O)C2(C)C)ccc1OCCN1CCN(CC(=O)Nc2cccc(NC3CCC(=O)NC3=O)c2)CC1 (stereo not drawn) [Example 34, hydrochloride]	* (0<Y<=25%)	< 100 nM	
CC(C)c1cc(N2C(=S)N(c3cnc(C#N)c(C(F)(F)F)c3)C(=O)C2(C)C)ccc1OCCN1C[C@@H](C)N(CC(=O)Nc2cccc(NC3CCC(=O)NC3=O)c2)[C@@H](C)C1 (stereo partly drawn) [Example 180, 2-((2S,6R)-4-(2-(4-(3-(6-cyano-5-(trifluoromethyl)pyridin-3-yl)-5,5-dimethyl-4-oxo-2-thioxoimidazolidin-1-yl)-2-isopropylphenoxy)ethyl)-2,6-dimethylpiperazin-1-yl)-N-(3-(2,6-dioxopiperidin-3-ylamino)phenyl)acetamide]	* (0<Y<=25%)	< 100 nM	
CCc1cc(N2C(=S)N(c3ccc(C#N)c(C(F)(F)F)c3)C(=O)C2(C)C)ccc1OCCN1CCN(C(C)(C)C(=O)Nc2cc(Cl)cc(NC3CCC(=O)NC3=O)c2)CC1 (stereo not drawn) [Example 133, N-(3-chloro-5-(2,6-dioxopiperidin-3-ylamino)phenyl)-2-(4-(2-(4-(3-(4-cyano-3-(trifluoromethyl)phenyl)-5,5-dimethyl-4-oxo-2-thioxoimidazolidin-1-yl)-2-ethylphenoxy)ethyl)piperazin-1-yl)-2-methylpropanamide]	** (25%<Y<=35%)	100 to 500 nM	
CCc1cc(N2C(=S)N(c3ccc(C#N)c(C(F)(F)F)c3)C(=O)C2(C)C)cc(C)c1OCCN1C[C@@H](C)N(CC(=O)Nc2cccc(NC3CCC(=O)NC3=O)c2)[C@@H](C)C1 (stereo partly drawn) [Example 249, 2-((2R,6S)-4-(2-(4-(3-(4-cyano-3-(trifluoromethyl)phenyl)-5,5-dimethyl-4-oxo-2-thioxoimidazolidin-1-yl)-2-ethyl-6-methylphenoxy)ethyl)-2,6-dimethylpiperazin-1-yl)-N-(3-(2,6-dioxopiperidin-3-ylamino)phenyl)acetamide]	*** (35%<Y<50%)	100 to 500 nM	
CC(C)c1cc(N2C(=S)N(c3cnc(C#N)c(C(F)(F)F)c3)C(=O)C2(C)C)ccc1OCCN1C[C@@H](C)N(CC(=O)Nc2cc(Cl)cc(NC3CCC(=O)NC3=O)c2)C[C@H]1C (stereo partly drawn) [Example 185, N-(3-chloro-5-(2,6-dioxopiperidin-3-ylamino)phenyl)-2-((2R,5R)-4-(2-(4-(3-(6-cyano-5-(trifluoromethyl)pyridin-3-yl)-5,5-dimethyl-4-oxo-2-thioxoimidazolidin-1-yl)-2-isopropylphenoxy)ethyl)-2,5-dimethylpiperazin-1-yl)acetamide]	* (0<Y<=25%)	100 to 500 nM	
CCc1cc(N2C(=S)N(c3ccc(C#N)c(Cl)c3)C(=O)C2(C)C)ccc1OCCN1CCN(CC(=O)Nc2cccc(NC3CCC(=O)NC3=O)c2)[C@H](C)C1 (stereo partly drawn) [Example 168, 2-((R)-4-(2-(4-(3-(3-chloro-4-cyanophenyl)-5,5-dimethyl-4-oxo-2-thioxoimidazolidin-1-yl)-2-ethylphenoxy)ethyl)-2-methylpiperazin-1-yl)-N-(3-(2,6-dioxopiperidin-3-ylamino)phenyl)acetamide]	* (0<Y<=25%)	< 100 nM	
CCc1cc(N2C(=S)N(c3ccc(C#N)c(C(F)(F)F)c3)C(=O)C2(C)C)ccc1CCCN1CCN(CC(=O)Nc2cccc(NC3CCC(=O)NC3=O)c2)[C@@H](C)C1 (stereo partly drawn) [Example 279, 2-((S)-4-(3-(4-(3-(4-cyano-3-(trifluoromethyl)phenyl)-5,5-dimethyl-4-oxo-2-thioxoimidazolidin-1-yl)-2-ethylphenyl)propyl)-2-methylpiperazin-1-yl)-N-(3-(2,6-dioxopiperidin-3-ylamino)phenyl)acetamide]	* (0<Y<=25%)	< 100 nM	
CCC(C)c1cc(N2C(=S)N(c3cnc(C#N)c(C(F)(F)F)c3)C(=O)C2(C)C)ccc1OCCN1CCN(CC(=O)Nc2cccc(NC3CCC(=O)NC3=O)c2)CC1 (stereo not drawn) [Example 37, hydrochloride]	*** (35%<Y<50%)	500 to 1000 nM	
CCc1cc(N2C(=S)N(c3cnc(C#N)c(C(F)(F)F)c3)C(=O)C2(C)C)ccc1OCCN1CCN(C2(C(=O)Nc3cc(Cl)cc(NC4CCC(=O)NC4=O)c3)CC2)CC1 (stereo not drawn) [Example 165, N-(3-chloro-5-(2,6-dioxopiperidin-3-ylamino)phenyl)-1-(4-(2-(4-(3-(6-cyano-5-(trifluoromethyl)pyridin-3-yl)-5,5-dimethyl-4-oxo-2-thioxoimidazolidin-1-yl)-2-ethylphenoxy)ethyl)piperazin-1-yl)cyclopropanecarboxamide]	* (0<Y<=25%)	< 100 nM	
